Results on 13 molecules are retold here after patent US20230131339A1, “EPI-X4 BASED PEPTIDES AND DERIVATIVES THEREOF” (Universitaet Ulm, priority 2020, published 2023).

Where a SMILES comes first, the peptide text is derived from it. Where no end group is shown, it is not given here. Side-chain parts run from the residue outwards. [ ]: non-standard residue; d: D form. The star is where a group is joined. Palmitoyl = CCCCCCCCCCCCCCCC(=O)*; Glu = glutamate linker

In series [1] the test system is CXCL12 induced Ca2+-signalling. The series is described as follows: Ca++ signaling in BCR-ABL-transformed murine bone marrow cells. Type of series: cell-based. The following applies: 1 μM. The method, then: Fifth, it was shown that the peptide derivatives inhibit calcium-signaling. CXCL12 stimulation of CXCR4 expressing B-cells leads to a strong calcium-release. In the presence of CXCR4 antagonists this response is reduced.
For calcium measurement, 1×10^6 BCR-ABL-transformed murine bone marrow cells were incubated with 5 μg/mL of Indo-1 (Molecular Probes) and 0.5 μg/mL of pluronic F-127 (Molecular Probes) in Iscove's medium supplemented with 1% FCS (Pan Biotech) at 37° C. for 45 min. Cells were then washed by centrifugation and the cell pellets were resuspended in Iscove's medium with 1% FCS and treated with the EPI-X4 derivatives (1 μM or 0.5 μM) for 10 minutes at room temperature. Cells were pre-warmed for 5 minutes at 37° C. Calcium flux was assessed by FACS measurement at BD LSR Fortessa. After 30 seconds of baseline recording, CXCR4-dependent calcium signaling was determined by stimulating with 100 ng/ml of mouse SDF-1a (PeproTech).

The subject of series [2] is CXCR4-tropic X4-HIV-1 (NL4-3). Type of series: cell-based. Particulars: for IC50: CXCR4-tropic X4- (NL4-3).
The conditions of series [3]: mice, i.v. tail vein.
Description: Peptides were injected into the tail vein of mice. 4 hours post injection, mice were sacrificed and blood taken by heart punctation. Plasma was obtained by centrifugation and tested for remaining activity in antibody competition assay. As control, peptide was spiked into native plasma (ex vivo). IC50 values were determined by non-linear regression assuming 1.8 ml in vivo blood volume. Remaining activity was determined by IC50 (ex vivo)/IC50 (in vivo)×100. The tested peptides included JM #143 (SEQ ID NO.: 54), JM #144 (SEQ ID NO.: 55), JM #192 (SEQ ID NO.: 89), JM #180 (SEQ ID NO.: 77), JM #194 (SEQ ID NO.: 91), JM #235 (SEQ ID NO.: 130), JM #198 (SEQ ID NO.: 95), JM #255 (SEQ ID NO.: 150), JM #257 (SEQ ID NO.: 152) and JM #204 (SEQ ID NO.: 99). […] Shown are data from 2 individual mice measured in duplicates.
In vivo stability assay. 100 μl of a 700 μg/ml stock solution of the peptide in 0.9% NaCl was intravenously injected in the tail vein of C57BL/6NCrl (BL6) mice. 4 hours post injection, mice were killed by cervical dislocation. Mouse plasma was obtained by heart punctation. Blood was 19:1 diluted with 0.16 M NaEDTA and centrifuged at 2000×g for 20 min at 4° C. to obtain plasma. Plasma was stored at −80° C. till remaining peptide activity in the plasma was determined by 12G5 antibody competition assay.
The subject of series [4] is CXCL12 induced migration of T-cells. The series is described as follows: Migration assay (transwell, Jurkat cells). The format is cell-based. The method, then: For each peptide, three independent experiments were performed. The error bars refer to the standard deviation.
Migration assay. Migration assays were performed using 96-well transwell assay plates (Corning Incorporated, Kennebunk, Me., USA) with 5 μm polycarbonate filters. […] Next, 75 μL (0.5×10^5 cells) of Jurkat cells (in assay buffer), together with/without the compounds, were added into the upper chambers. After 4 h at 37° C. (5% CO2), 100 μL of the lower chambers were transferred to a fresh 96 V-well plate and analyzed with Cell-Titer-Glo® assay (Promega, Madison, Wis., USA). The percentage of migrated cells was calculated as described by Balabanian et al. (2005). In order to obtain the relative migration in %, the percentage of migrated cells were normalized to the CXCL12-only control.

Series [5] in a line: Functional stability assay in human plasma. Particulars: human, plasma. The method, then:
Fourth, the stability of peptides in human plasma and whole human blood was tested (FIG. 4). The functional stability of EPI-X4 (SEQ ID NO.: 1) derivatives was screened using a CXCR4 antibody-based screening approach. Peptides were diluted in full human plasma or blood (>99%) and the functional activity was then measured after either 2 hours or 8 hours and compared to a sample that was not incubated in plasma or blood.
In this test, the peptides were incubated in human plasma for a certain time period.
Stability assay. Whole blood was collected from healthy donors in EDTA tubes and directly used or subsequently centrifuged for 15 min at 2,500×g to obtain plasma. Plasma from 6 donors was pooled and stored in aliquots at −80° C. Compounds were 200-fold diluted in human plasma or whole human blood to reach final concentrations of 20 μM. The t=0 sample was immediately taken and stored at −80° C. Plasma/compound or blood/compound mixture was then transferred to 37° C. and shook at 350 rpm. At given time points samples were taken and stored at −80° C.°. For measuring the functional activity of the plasma/peptide samples, the mixtures were thawed and diluted in ice cold PBS. 12G5-APC antibody competition was then performed as described before. For blood/peptide functional stability, samples were thawed and centrifuged at 14,000 rpm to remove cells and debris. The supernatant was then diluted in PBS and 12G5-antibody competition assay was performed. After the 2 hours incubation, the cells were washed and 50 μl of 1-step-Fix/Lyse solution (Thermo Fisher #00-5333-54) was added for 15 minutes at room temperature. Afterwards cells were washed again and analyzed for bound antibody.

Series [6] concerns CXCL12-induced AKT signaling. The series is described as follows: ERK/AKT signaling assay in SupT1 cells: AKT phosphorylation. Type of series: cell-based. The method, then: (§1) Third, the activity of the claimed EPI-X4 derivatives was tested by the effect on CXCL12/CXCR4-mediated ERK (Extracellular-signal Regulated Kinases) and AKT (a serine/threonine-protein kinase) signaling (FIG. 3). In that assay CXCR4 expressing cells are stimulated with the CXCR4 chemokine-ligand CXCL12, which subsequently leads to phosphorylation of ERK and AKT. Preincubation of cells with CXCR4-antagonists blocks those pathways. […] Two or three independent experiments were carried out in triplicates for each peptide in each assay. The error bars refer to the standard deviation.
(§2) ERK/AKT signaling assay. CXCL12 induced ERK and AKT phosphorylation was determined in SupT1 cells. For this, 100,000 cells were seeded per well in a 96-V well plate in 100 μl medium supplemented with 1% FCS. Cells were incubated for 2 hours at 37° C. before 5 μl of compounds were added. After 15 min incubation at 37° C. cells were stimulated by adding 5 μl CXCL12 diluted in PBS to reach a final concentration of 100 ng/ml. Cells were further incubated for 2 min before the reaction was stopped by adding 20 μl of 10% PFA. Cells were fixed for 15 min at 4° C. before PFA was removed and cells permeabilized by adding 100 μl ice cold methanol. After 15 min at 4° C. the methanol was removed, cells were washed and 30 μl primary antibody was added (phospho-p44/42 MAPK (Erk1) (Tyr204)/(Erk2) (Tyr187) (D1H6G) mouse mAb #5726; phosphor-Akt (Ser473) (193H12) rabbit mAb #4058 Cell Signaling) for 1 hour at 4° C. After the antibody was removed and cells were washed secondary antibody was added for 30 min. Cells were washed afterwards and subsequently analyzed by flow cytometry.

For series [7], the system named is CXCL12-induced ERK signaling. The series is described as follows: ERK/AKT signaling assay in SupT1 cells: ERK phosphorylation. Type of series: cell-based. The method, then:
as §1, §2

The target of series [8] is T1, CXC chemokine receptor type 4 (CXCR4) (human, UniProt P61073 1-352).
T1 chain: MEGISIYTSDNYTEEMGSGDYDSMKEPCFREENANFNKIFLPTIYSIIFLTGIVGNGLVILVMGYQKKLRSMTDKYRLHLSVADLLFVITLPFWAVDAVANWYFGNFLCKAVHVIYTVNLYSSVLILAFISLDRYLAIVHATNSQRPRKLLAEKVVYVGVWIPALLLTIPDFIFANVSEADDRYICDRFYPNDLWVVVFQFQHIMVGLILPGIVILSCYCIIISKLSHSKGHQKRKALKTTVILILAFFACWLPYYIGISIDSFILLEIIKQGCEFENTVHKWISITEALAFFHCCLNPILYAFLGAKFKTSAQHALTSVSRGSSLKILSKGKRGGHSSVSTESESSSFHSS
The series can be described thus: 12G5 antibody competition.

In series [9] the target is CXC chemokine receptor type 4 (CXCR4) (human, UniProt P61073 1-352). The series can be described thus: cell-based or functional assay.
The target of series [10] is T1, CXC chemokine receptor type 4 (CXCR4). The series is described as follows: competition.
The target is the same in series [11]. The series can be described thus: competition.

What is called IC50 is the midpoint of a concentration-inhibition curve. Read a high IC50 as weaker potency in that assay.

On to `CCCCCCCCCCCCCCCC(=O)NCCCC[C@H](NC(=O)[C@H](CCCNC(=N)N)NC(=O)[C@H](CO)NC(=O)[C@H](Cc1c[nH]c2ccccc12)NC(=O)[C@H](CCCNC(=N)N)NC(=O)[C@H](CC(C)C)NC(=O)[C@@H](N)[C@@H](C)CC)C(N)=O` [JM #170, ILRWSRK(Pal)-NH2] (H-ILRWSRK(Palmitoyl)-NH2), for which, in [1], the “reduction of CXCL12 induced calcium-signaling” value is “almost completely blocked calcium-signaling”.

As to `CCCCCCCCCCCCCCCC(=O)N[C@@H](CCC(=O)O)C(=O)NCCCC[C@H](NC(=O)[C@H](CCCNC(=N)N)NC(=O)[C@H](CO)NC(=O)[C@H](Cc1c[nH]c2ccccc12)NC(=O)[C@H](CCCNC(=N)N)NC(=O)[C@H](CCSC)NC(=O)[C@H](N)CC(C)C)C(N)=O` [JM #194, d-LMRWSRK(Glu-Pal)-NH2] (H-[dL]MRWSRK([Glu-Palmitoyl])-NH2; N-terminus assumed), the “reduction of CXCL12 induced calcium-signaling” value in series [1] is given as “almost completely blocked calcium-signaling”. Further, in series [2], the “anti-HIV-1 activity (in words)” value is on record as “strongly increased anti-HIV-1 activity” and half-maximal inhibition (IC50) required 2 nM. Also, in series [3] (8 hours post injection), the “remaining activity in plasma in vivo 8 hours post injection” value is reported as “about 9%”. In [4], the “inhibition of CXCL12 induced migration of T-cells (in words)” value (“inhibition … (in words)” for short) is “high activity”.

For `CC[C@H](C)[C@H](N)C(=O)N[C@@H](CC(C)C)C(=O)N[C@@H](CCCNC(=N)N)C(=O)N[C@@H](Cc1c[nH]c2ccccc12)C(=O)N[C@@H](CO)C(=O)N[C@@H](CCCNC(=N)N)C(=O)N[C@@H](CCCCN)C(=O)N[C@@H](CC(C)C)C(=O)N1CCC[C@H]1C(N)=O` [JM #114] (H-ILRWSRKLP-NH2), in series [5], the “functional stability in human plasma (in words)” value is on record as “rapidly inactivated in plasma”. For the same molecule, the “inhibition … (in words)” value in series [4] is reported as “even more effective than the full-length peptide”.

Consider `CC[C@H](C)[C@H](N)C(=O)N[C@@H](CC(C)C)C(=O)N[C@@H](CCCNC(=N)N)C(=O)N[C@@H](Cc1c[nH]c2ccccc12)C(=O)N[C@@H](CO)C(=O)N[C@@H](CCCNC(=N)N)C(=O)N[C@@H](CCCCN)C(N)=O` [JM #118, ILRWSRK-NH2] (H-ILRWSRK-NH2), for which, in series [5], the “functional stability in human plasma (in words)” value was “rapidly inactivated in plasma”. In addition, the “inhibition … (in words)” value in [4] was “even more effective than the full-length peptide”.

`CCCCCCCCCCCCCCCC(=O)NCCCC[C@H](NC(=O)[C@H](CCCNC(=N)N)NC(=O)[C@H](CO)NC(=O)[C@H](Cc1c[nH]c2ccccc12)NC(=O)[C@H](CCCNC(=N)N)NC(=O)[C@H](CC(C)C)NC(=O)[C@@H](N)[C@@H](C)CC)C(=O)N[C@@H](CC(C)C)C(=O)N1CCC[C@H]1C(=O)N[C@@H](CS)C(=O)N[C@H](C(=O)N[C@@H](CO)C(=O)O)C(C)C` [JM #144, ILRWSRK(Pal)LPCVS]: the “reduction of CXCL12 induced calcium-signaling” value in series [1] is reported as “almost completely blocked calcium-signaling”. Further, in series [3] (4 hours post injection), the “remaining activity in plasma in vivo 4 hours post injection” value worked out at 27%.

For `CCCCCCCCCCCCCCCC(=O)N[C@@H](CCC(=O)NCCCC[C@H](NC(=O)[C@H](CCCNC(=N)N)NC(=O)[C@H](CO)NC(=O)[C@H](Cc1c[nH]c2ccccc12)NC(=O)[C@H](CCCNC(=N)N)NC(=O)[C@H](CC(C)C)NC(=O)[C@@H](N)[C@@H](C)CC)C(=O)N[C@@H](CC(C)C)C(=O)N1CCC[C@H]1C(=O)N[C@@H](CS)C(=O)N[C@H](C(=O)N[C@@H](CO)C(=O)O)C(C)C)C(=O)O` [JM #143, ILRWSRK(Glu-Pal)LPCVS], the “reduction of CXCL12 induced calcium-signaling” value in [1] is “almost completely blocked calcium-signaling”. The same molecule yielded an IC50 in [2] of 5 nM. Also, in series [2] (compared to WSC02), the “fold increase of anti-HIV-1 potency compared to WSC02” value was “more than 60 fold”. For the same molecule, the “reduction of CXCL12-induced AKT signaling” value was 20-25% in series [6] (0.1 μM) and about 70% in [6] (1 μM). The “reduction of CXCL12-induced ERK signaling” value is recorded as 20-25% in series [7] (0.1 μM) and about 70% in series [7] (1 μM). In addition, the “inhibition … (in words)” value in series [4] is listed as “strongly increased antagonistic effect in CXCL12 induced cell migration”.

[dL]MRWSRKMPCVS [JM#36] showed an IC50 in series [8] of 305 nM.

As to [dI]LRWSRKLP-NH2 [JM#174], in series [9], the “IC50, HIV inhibition assay” value is over 150 nM. Besides, in series [8], the half-maximal inhibitory concentration (IC50) came out at 480 nM.

For ILRWSRK(Palmitoyl)LPCVS [JM#144], the results for the IC50 in series [10] and in series [11] were 125 nM and 87 nM, respectively. Moreover, in [9], the “IC50, X4-HIV-1 inhibition assay” value is under 5 nM.

Consider [dL]MRWSRKK([Glu-Palmitoyl])-NH2 [JM#195], for which the IC50 in series [8] stood at 3 nM. That is a single-digit nanomolar value.

ILRWSRK([Glu-Palmitoyl])LPCVS [JM#143]: the IC50 worked out at 204 nM in series [10] and 176 nM in series [11].

[dM]LRWSRKK([Glu-Palmitoyl])-NH2 [JM#197]: the IC50 in [8] is 5 nM.

As for ILRWSRK-NH2 [JM#118], the IC50 in series [10] came to 181 nM; in series [11] it was 224 nM. Besides, the “IC50, HIV inhibition assay” value in [9] was over 150 nM.
